Results from patent US9227956B2 (Pfizer Inc., priority 2013, dated 2016).

Legend:
human PCSK9 [1] = assay: Cell Free PCSK9 Assay (PCSK9-luciferase RNA translated in HeLa cell lysate); type: biochemical; conditions: 30° C. for 45 minutes, luciferase readout, top concentration 100 μM
Protocol: In order to eliminate the permeability barrier inherent to the WT7 and SCHH cell-based assays a cell-free system was also established to access compound activity. […] The construct was then in-vitro transcribed using the MEGAscript T7 Kit (Life Technologies) and RNA subsequently purified incorporating the MEGAclear Kit (Life Technologies) according to manufacturer's protocols. […] Growth was in a 50 L wavebag at a rocker speed of 25 rpm and angle 6.1 with 5% CO2 and 0.2 LPM flow rate with cells harvested at a density of 2-2.5e6/ml. Lysates additionally contained 1 tablet of Roche cOmplete-EDTA protease inhibitors per 50 ml with tris(2-carboxyethyl)phosphine (Biovectra) substituted for dithiothreitol, and were clarified by an additional final centrifugation at 10,000 rpm in a Sorvall SS34 rotor at 4° C. for 10 minutes. Compound screening was performed in 384-well plates in an eleven point, 0.5 log dilution format at a top test compound concentration of 100 μM in a final volume of 0.5% DMSO. […] Upon assay completion 1 μL from each reaction solution was removed and transferred to a second 384-well Optiplate (Perkin Elmer) containing 24 μL of SteadyGlo (Promega) and signal intensity was measured on the Envision (Perkin Elmer) using the enhanced luminescence protocol. […] The test compound data were converted into percent effect, using the ZPE and HPE controls as 0% and 100% activity, respectively, applying Equation 1 above. IC50 was then calculated and reported as the midpoint in the percent effect curve in molar units and the values are reported under the Cell Free PCSK9 IC50 (μM) column header within Table 1 Biological Data.

PCSK9 = PCSK9 lowering in sandwich culture human hepatocytes (SCHH); type: cell-based; conditions: maximum response versus vehicle
Protocol: Test compound in-vitro pharmacokinetic and pharmacodynamic relationships were measured in sandwich culture primary cryopreserved human hepatocytes. Within these studies SCHH cells (BD Biosciences IVT) were thawed at 37° C. then placed on ice, after which the cells were added to pre-warmed (37° C.) In VitroGRO-HT media and centrifuged at 50×g for 3 min. The cell pellet was re-suspended to 0.8×10^6 cells/mL in InVitroGRO-CP plating medium and cell viability determined by trypan blue exclusion. On day 1, hepatocyte suspensions were plated in BioCoat 96-well plates at a density of 80000 cells/well in a volume of 0.1 mL/well. After 18 to 24 hours of incubation at 37° C. in 5% CO2, cells were overlaid with ice-cold 0.25 mg/mL BD Matrigel Matrix Phenol Red-Free in incubation medium at 0.1 mL/well. Cultures were maintained at 37° C. in 5% CO2 in InVitroGRO-HI (FBS-free media), which was replaced every 24 hours and time course treatments were initiated on day 5. Prior to compound treatment cell plates were washed 3 times with 0.1 mL/well InVitroGRO-HI and 0.09 mL of media was added back in preparation for the compound additions. 1 uL of either DMSO or compound DMSO stocks at 30 mM, 10 mM, 3 mM and 1 mM were stamped into 96 well V bottom polypropylene plates. 0.099 mL of media was added to the compound plate and mixed thoroughly before the addition of 0.010 mL from the interim compound plate to the cell plate. […] At the indicated time, 0.08 mL of media was removed from the cell plates and frozen for subsequent analysis of secreted PCSK9 by AlphaLISA and for determination of drug levels in the media by liquid chromatography-tandem mass spectrometry (LC-MS/MS). The remaining media was then aspirated and the cell layers were washed 3× with ice cold Hanks Balanced Salt Solution (HBSS) under shaking conditions to remove the matrigel overlay and plates were then stored at −20° C. for subsequent determination of drug levels in the cells by LC-MS/MS. AlphaLISA determination of PCSK9 protein levels within the conditioned media was performed ultilizing the identical reagents and detection protocols described above for the WT7 cells.

human PCSK9 [2] = assay: PCSK9 AlphaLISA assay, PCSK9 lowering in WT7 cells; conditions: WT7 cells (Huh7 stably over-expressing human PCSK9); secreted PCSK9 by AlphaLISA; overnight incubation (16-24 h); top concentration 20 μM; read-out: Cell Based PCSK9 IC50
Description: An in-vitro AlphaLISA assay (Perkin Elmer) was developed in order to quantitate the level of PCSK9 secreted into the cell culture media following compound treatment. To detect and measure PCSK9 protein an in-house generated anti-PCSK9 antibody was coupled to AlphaLISA acceptor beads by an external vendor (PerkinElmer) and a second internally developed anti-PCSK9 antibody with an epiptope distinct from that of the acceptor beads was biotinylated in house. Streptavidin coated-donor beads (Perkin Elmer) are also included in the assay mixture which then binds the biotinylated anti-PCSK9 antibody and in the presence of PCSK9 this donor complex and acceptor beads are brought into close proximity. […] The ability of compound to modulate PCSK9 protein levels in conditioned media by AlphaLISA was assessed in the human hepatocellular carcinoma cell line Huh7, stably over-expressing human PCSK9. […] Following plasmid transfection the stable WT7 clone was identified and maintained under Zeocin selection. Compound screening was performed in 384-well plates where WT7 cells were plated at a density of 7500 cells per well in 20 μL of tissue culture media containing compound in an eleven point, 0.5 log dilution format at a high treatment concentration of 20 μM in a final volume of 0.5% DMSO. In additional to these test compound conditions each screening plate also included wells that contained 20 μM puromycin as a positive assay control defined as high percent effect, HPE, as well as wells containing media in 0.5% DMSO as a negative treatment control defined as zero percent effect, ZPE. After overnight compound incubation (16-24 h) the tissue culture media was collected and an aliquot from each sample was transferred to individual wells of a 384-well white Optiplate (Perkin Elmer). The coupled antibodies and donor beads were added to the assay plates in a buffer composed of 30 mM Tris pH 7.4, 0.02% Tween-20 and 0.02% Casein. Anti-PCSK9 acceptor beads (final concentration of 10 μg/mL) and anti-PCSK9 biotinylated antibody (final concentration of 3 nM) were added and incubated for 30 minutes at room temperature followed by the addition of the streptavidin donor beads (final concentration 40 μg/mL) for an additional 60 minutes. Additionally a standard curve was generated where AlphaLISA reagents were incubated in wells spiked with recombinant human PCSK9 diluted in tissue culture media from 5000 ng/mL to 0.6 ng/mL. […] The test compound data were converted into percent effect, using the ZPE and HPE controls as 0% and 100% activity, respectively. The equation used for converting each well reading into percent effect was:
[formula] IC50 was then calculated and reported as the midpoint in the percent effect curve in molar units and the values are reported under the Cell Based PCSK9 IC50 (μM) column header within Table 1 Biological Data. Additionally, to monitor the selectivity of compound response for PCSK9 the level of a second secreted protein, Transferrin, was measured from the same conditioned media treated with test compound by AlphaLISA. […] To detect and quantify effects on Transferrin 0.01 mL of the culture media was transferred to a 384-well white Optiplate and 0.01 mL of media was added to bring the volume to 0.02 ml. Anti-Transferrin acceptor beads were added to a final concentration of 10 μg/mL, biotinylated anti-Transferrin at 3 nM and streptavidin donor beads at 40 μg/mL. Percent effect and IC50 for Transferrin was computed in a similar manner as that described for PCSK9.

SMILES	IC50 (human PCSK9 [1]) [µM]	Sandwich Culture Hepatocyte (SCHH) PCSK9 Lowering (PCSK9; at 6 h at 30 uM) [% at 6 h at 30 uM]	IC50 (human PCSK9 [2]) [µM]	Sandwich Culture Hepatocyte (SCHH) PCSK9 Lowering (PCSK9; at 8 h at 30 μM) [% at 8 h at 30 μM]
CCOC(=O)OC(CC)n1nnc(-c2c(-c3ccc(C(=O)N(c4ncccc4C)[C@@H]4CCCNC4)cc3)cnn2C)n1 (single isomer, unassigned) [Example 32]	7.26	0	> 20	
CCOC(=O)OC(CC)n1nnc(-c2c(-c3ccc(C(=O)N(c4ncccc4C)[C@@H]4CCCNC4)cc3)cnn2C)n1 (single isomer, unassigned) [Example 33]	23.7	32	> 20	
CCOC(=O)OC(C(C)C)n1nnc(-c2c(-c3ccc(C(=O)N(c4ncccc4C)[C@@H]4CCCNC4)cc3)cnn2C)n1 (single isomer, unassigned) [Example 34]	5.22	20	> 20	
CCOC(=O)OC(C(C)C)n1nnc(-c2c(-c3ccc(C(=O)N(c4ncccc4C)[C@@H]4CCCNC4)cc3)cnn2C)n1 (single isomer, unassigned) [Example 35]	6.2	28	> 20	
CCOC(=O)OC(n1nnc(-c2c(-c3ccc(C(=O)N(c4ncccc4C)[C@@H]4CCCNC4)cc3)cnn2C)n1)C(C)(C)C (single isomer, unassigned) [Example 36]	5.43	27	> 20	
CCOC(=O)OC(n1nnc(-c2c(-c3ccc(C(=O)N(c4ncccc4C)[C@@H]4CCCNC4)cc3)cnn2C)n1)C(C)(C)C (single isomer, unassigned) [Example 37]	22.9	25	> 20	
Cc1cccnc1N(C(=O)c1ccc(-c2cnn(C)c2-c2nnn(C(C)OC(=O)OC(C)C)n2)cc1)[C@@H]1CCCNC1 (single isomer, unassigned) [Example 38]	2.19	3		
Cc1cccnc1N(C(=O)c1ccc(-c2cnn(C)c2-c2nnn(C(C)OC(=O)OC(C)C)n2)cc1)[C@@H]1CCCNC1 (single isomer, unassigned) [Example 39]	0.592	0		
CCC(OC(=O)OC(C)C)n1nnc(-c2c(-c3ccc(C(=O)N(c4ncccc4C)[C@@H]4CCCNC4)cc3)cnn2C)n1 (single isomer, unassigned) [Example 40]	18.2	26	> 20	
CCC(OC(=O)OC(C)C)n1nnc(-c2c(-c3ccc(C(=O)N(c4ncccc4C)[C@@H]4CCCNC4)cc3)cnn2C)n1 (single isomer, unassigned) [Example 41]	15.4	35	> 19.4	
Cc1cccnc1N(C(=O)c1ccc(-c2cnn(C)c2-c2nnn(C(OC(=O)OC(C)C)C(C)C)n2)cc1)[C@@H]1CCCNC1 (single isomer, unassigned) [Example 42]	7.38	19	> 20	
Cc1cccnc1N(C(=O)c1ccc(-c2cnn(C)c2-c2nnn(C(OC(=O)OC(C)C)C(C)C)n2)cc1)[C@@H]1CCCNC1 (single isomer, unassigned) [Example 43]	31.9	21	> 20	
CCC(=O)OC(C)n1nnc(-c2c(-c3ccc(C(=O)N(c4ncccc4C)[C@@H]4CCCNC4)cc3)cnn2C)n1 (single isomer, unassigned) [Example 44]	4.39	12	> 20	
CCC(=O)OC(C)n1nnc(-c2c(-c3ccc(C(=O)N(c4ncccc4C)[C@@H]4CCCNC4)cc3)cnn2C)n1 (single isomer, unassigned) [Example 45]	25.1	8	> 20	
CCC(=O)OC(C(C)C)n1nnc(-c2c(-c3ccc(C(=O)N(c4ncccc4C)[C@@H]4CCCNC4)cc3)cnn2C)n1 (single isomer, unassigned) [Example 48]	7.68	16	> 20	
CCC(=O)OC(C(C)C)n1nnc(-c2c(-c3ccc(C(=O)N(c4ncccc4C)[C@@H]4CCCNC4)cc3)cnn2C)n1 (single isomer, unassigned) [Example 49]	15.4	0	> 20	
Cc1cccnc1N(C(=O)c1ccc(-c2cnn(C)c2-c2nnn(C(C)OC(=O)C(C)C)n2)cc1)[C@@H]1CCCNC1 (single isomer, unassigned) [Example 50]	8.03	37	> 20	
CCOC(=O)c1c(-c2ccc(C(=O)N(c3ncccc3Cl)[C@@H]3CCCNC3)cc2)cnn1C [Example 6, ethyl 4-(4-{(3-chloropyridin-2-yl)[(3R)-piperidin-3-yl]carbamoyl}phenyl)-1-methyl-1H-pyrazole-5-carboxylate]	1.7			80
